Results published in article PMC9465256, “Discovering monoacylglycerol lipase inhibitors by a combination of fluorogenic substrate assay and activity-based protein profiling” (Frontiers in Pharmacology, 2022).
Entries after “also recorded” stand apart in the source; their conditions may differ.

Columns and labels:
[1] = molecular target: T1, human MAGL (Homo sapiens, UniProt Q99685); assay: MAGL activity assay (AA-HNA fluorogenic substrate); type: biochemical
T1 construct: expressed in transfected cells; host or cells: HEK293T (transient transfection; membrane fraction)
T1 sequence (Q99685 1-303): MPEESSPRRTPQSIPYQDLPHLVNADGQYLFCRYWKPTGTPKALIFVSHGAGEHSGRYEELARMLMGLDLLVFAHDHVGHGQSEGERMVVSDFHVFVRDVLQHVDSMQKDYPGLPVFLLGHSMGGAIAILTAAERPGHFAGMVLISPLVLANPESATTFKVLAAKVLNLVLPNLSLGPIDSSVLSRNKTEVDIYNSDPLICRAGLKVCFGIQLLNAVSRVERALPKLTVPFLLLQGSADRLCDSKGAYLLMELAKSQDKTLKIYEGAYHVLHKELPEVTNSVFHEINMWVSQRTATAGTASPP
Outline: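 Activity was taken as the fluorescence slope over 5–15 min after adding AA-HNA (10 µl of a 200 µM solution), with readings every minute for 30 min. Before substrate addition, inhibitors were incubated for 30 min with MAGL-overexpressing membranes from transfected HEK293T cells in HEPES buffer (40 mM, pH 7.5, 0.1 mg/ml BSA).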

[2] = molecular target: T2, human ABHD6 (Homo sapiens, UniProt Q9BV23); assay: ABHD6 activity assay (AA-HNA fluorogenic substrate); type: biochemical
T2 construct: expressed in transfected cells; host or cells: HEK293T (transient transfection; membrane fraction)
T2 sequence (Q9BV23 1-337): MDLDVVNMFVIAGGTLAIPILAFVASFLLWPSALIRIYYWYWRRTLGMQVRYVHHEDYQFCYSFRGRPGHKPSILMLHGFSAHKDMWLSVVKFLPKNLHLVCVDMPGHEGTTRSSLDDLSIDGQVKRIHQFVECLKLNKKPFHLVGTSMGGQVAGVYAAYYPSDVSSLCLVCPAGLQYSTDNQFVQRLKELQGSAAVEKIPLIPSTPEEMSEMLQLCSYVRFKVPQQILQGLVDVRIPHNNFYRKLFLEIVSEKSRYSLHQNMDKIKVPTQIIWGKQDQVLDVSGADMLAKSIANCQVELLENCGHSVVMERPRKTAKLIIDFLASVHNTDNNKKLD
Outline: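 Membranes from HEK293T cells transiently overexpressing human ABHD6 (50 μg/ml final) were preincubated 30 min with inhibitor in 40 mM HEPES pH 7.5, 0.1 mg/ml BSA, 5% DMSO. Hydrolysis of 200 µM AA-HNA was followed by fluorescence for 30 min, activity taken as the 5–15 min slope.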

[3] = molecular target: T3, human ABHD12 (Homo sapiens, UniProt Q8N2K0); assay: ABHD12 activity by competitive ABPP with FP-TAMRA; type: biochemical; settings: 100 µM compound; competitive ABPP with probe FP-TAMRA (250 nM); read-out: ABHD12 Inhibition (%)
T3 construct: expressed in transfected cells; host or cells: HEK293T (transient transfection; membrane fraction)
T3 sequence (Q8N2K0 1-398): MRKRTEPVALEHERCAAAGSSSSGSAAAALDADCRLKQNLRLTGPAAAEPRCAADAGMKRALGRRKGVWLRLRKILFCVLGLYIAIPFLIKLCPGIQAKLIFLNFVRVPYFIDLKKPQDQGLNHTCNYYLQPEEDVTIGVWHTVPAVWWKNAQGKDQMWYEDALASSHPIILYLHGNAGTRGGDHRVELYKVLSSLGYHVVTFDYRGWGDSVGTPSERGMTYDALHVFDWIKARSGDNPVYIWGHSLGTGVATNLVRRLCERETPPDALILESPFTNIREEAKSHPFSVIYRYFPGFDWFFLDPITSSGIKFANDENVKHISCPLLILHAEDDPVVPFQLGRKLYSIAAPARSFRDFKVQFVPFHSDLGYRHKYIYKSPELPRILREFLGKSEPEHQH
Outline: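 Membrane fractions of HEK293T cells transiently overexpressing human ABHD12 (1 mg/ml) preincubated with inhibitor or DMSO for 30 min at room temperature, then labelled with FP-TAMRA (250 nM final) for 20 min. Quenched samples resolved by SDS-PAGE and read by in-gel fluorescence scanning (Cy3 settings).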

[4] = test system: serine hydrolases labeled by FP-TAMRA in mouse brain membrane proteome; assay: Competitive ABPP selectivity assay, mouse brain membrane proteome; type: biochemical; settings: 100 µM, FP-TAMRA 250 nM
Protocol: Mouse brains were dounce homogenized lysis buffer (20 mM HEPES, 2 mM DTT, 1 mM MgCl2, 25 U/mL benzonase) and incubated on ice for 15 min, followed by low-speed spin (2,500 g, 3 min, 4 C) to remove debris. The supernatant was subjected to ultracentrifugation (100,000 g, 45 min, 4°C) to generate the cytosolic fraction in the supernatant, as well as the membrane fraction as a pellet. After removal of the soluble supernatant, the pellet was resuspended in storage buffer (20 mM HEPES, 2 mM DTT) by pipetting. Total protein concentrations in membrane and soluble fractions were determined using a Qubit protein assay (Invitrogen). The obtained samples were stored at −80°C until further use.
The competitive ABPP selectivity assay was performed according to the previously reported protocol. Briefly, mouse brain membrane proteome (2 mg/ml, 20 µl) was preincubated for 30 min with 0.5 µl of DMSO (vehicle) or inhibitor (100 μM, finial concentration). […] The reactions were then quenched by 10 µl sample buffer (×4). The obtained samples were directly loaded and resolved on SDS-PAGE gel (10% acrylamide). The gels were then scanned and analyzed using a ChemiDoc MP system (Cy3 settings, BioRad). All the samples were measured and duplicated.

[5] = test system: ABHD6 in cancer cells; assay: Competitive ABPP in cancer cell lysates: ABHD6 band; type: biochemical; settings: 10 μM preincubation, A431 and B16-F10 cells
Protocol: (§1) To identify the potential off-targets of the compounds with anti-cancer activities, ABPP was applied. Cancer cells were seeded in the dishes and were washed with PBS, scraped, centrifugated (3,000 × g, 3 min) and pellets snap frozen in liquid in nitrogen. For ABPP experiments, the cell pellets were lysed by probe sonication (3 × 10 bursts) in PBS, followed by the determination of protein concentration of the intact cell lysate by Qubit assay. […] The reactions were then quenched by 10 µl sample buffer (×4). The obtained samples were directly loaded and resolved on SDS-PAGE gel (10% acrylamide). The gel-based ABPP results were then scanned and analyzed using a ChemiDoc MP system (Cy3 settings, BioRad).

[6] = test system: A431 cells; assay: Cell viability assay (CCK-8), A431; type: cell-based; settings: A431, 48 h, CCK-8
Protocol: (§2) Various cancer cell lines, including human colon cancer cell line HT-29, ovarian cell line OVCAR-3, melanoma cell line B16-F10, skin squamous cancer cells A431, cervical cancer cells Hela, lung cancer cell lines A549, H1975, and HCC827, were purchased from American type culture collection (ATCC). A431, H1975, B16-F10, OVCAR-3, HT-29, HCC827, Hela, and A549 cells were cultured in Dulbecco’s modified Eagle medium (DMEM, Gibco) containing 10% fetal bovine serum (FBS, Gibco), penicillin (100 U/ml) and streptomycin (100 μg/ml). All cell lines were maintained in a humidified 37°C incubator with 5% CO2. The medium was refreshed every 2–3 days and the cells were passaged at ∼90% confluence by adding the fresh medium, followed by vigorously pipetting the resuspend cells. Of note, the cells were only washed with PBS when a significant number of dead cells were observed.
(§3) The antiproliferation activity of the compounds against the cancer cell lines was evaluated using Cell Counting Kit-8. Briefly, cells (∼1,000 per well) in 100 µl of culture medium were plated in a 96-well plate for 24 h and 100 µl of medium with different concentrations of the tested compounds was added to each well for 48 h. Then 10 μl of CCK8 solution (#CK04, Dojindo) was added and incubated at 37°C for 2 h. The absorbance of each well was measured with a plate reader (BioTeck) at 450 nm. Cell viability was calculated as follows: cell viability (%) = [(As-Ab)/(Ac-Ab)] × 100. Among them, As represents the absorbance of experimental wells, Ab represents the absorbance of blank wells and Ac represents the absorbance of control wells. The experiments were repeated at least three times and IC50 values were determined by plotting a log(inhibitor) v. s normalized response (Variable slope) dose–response curve generated using GraphPad Prism software.

[7] = test system: H1975 cells; assay: Cell viability assay (CCK-8), H1975; type: cell-based; settings: H1975, 48 h
Protocol: as §2, §3

[8] = test system: B16-F10 cells; assay: Cell viability assay (CCK-8), B16-F10; type: cell-based; settings: B16-F10, 48 h, CCK-8
Protocol: as §2, §3

[9] = test system: OVCAR-3 cells; assay: Cell viability assay (CCK-8), OVCAR-3; type: cell-based; settings: OVCAR-3, 48 h
Protocol: as §2, §3

[10] = test system: HT-29 cells; assay: Cell viability assay (CCK-8), HT-29; type: cell-based, human; settings: HT-29, 48 h
Protocol: as §2, §3

[11] = test system: HCC827 cells; assay: Cell viability assay (CCK-8), HCC827; type: cell-based; settings: HCC827, 48 h
Protocol: as §2, §3

[12] = test system: Hela cells; assay: Cell viability assay (CCK-8), Hela; type: cell-based; settings: 48 h
Protocol: as §2, §3

[13] = test system: A549 cells; assay: Cell viability assay (CCK-8), A549; type: cell-based; settings: A549, 48 h
Protocol: as §2, §3

[14] = test system: endogenous MAGL in cancer cells; assay: Competitive ABPP in cancer cell lysates: MAGL band; type: biochemical; settings: 10 μM preincubation, cancer cell lysates
Protocol: as §1

[15] = 100 µM, AA-HNA substrate assay, Supplementary Table 1, read-out: MAGL Inhibition (%)
[16] = 100 µM, AA-HNA substrate assay, Supplementary Table 2, read-out: ABHD6 Inhibition (%)

Work on `O=C(CCc1ccc(O)cc1)c1c(O)cc(O)cc1O` [compound 66, Dihydronaringenin] yielded an activity [1, 15] of 41.3%, an activity [2, 16] of 115% and an activity [3] of 119%. The “selectivity profile over serine hydrolases” value (shortened to “selectivity profile”) [4] was “broad-spectrum inhibitors that cross-reacted with multiple serine hydrolases”.

For `Cc1cc2c(C(C)C)c(O)c(O)c(C=O)c2c(O)c1-c1c(C)cc2c(C(C)C)c(O)c(O)c(C=O)c2c1O` [compound 34, Gossypol Acetate], the activity at 100 µM [1, 15] was 35.2%, the activity at 100 µM [2, 16] was 26.3% and the activity at 100 µM [3] was 43.7%. The “selectivity profile” value [4] was “broad-spectrum inhibitors that cross-reacted with multiple serine hydrolases”.

`O=c1c(O)c(-c2ccc(O)c(O)c2)oc2cc(O)cc(O)c12` [compound 70, Quercetin] was tested, and the activity at 100 µM [1, 15] was 42%, the activity at 100 µM [2, 16] was 48.6% and the activity at 100 µM [3] was 75.1%. The “selectivity profile” value [4] was “broad-spectrum inhibitors that cross-reacted with multiple serine hydrolases”.

For `O=C(N1CCCCC1c1ccccc1)n1cc(-c2ccc(-c3cccc(CO)c3)cc2)nn1` (stereo not shown) [KT182, reference compound], the “effect on fluorescent signal of AA-HNA hydrolysis by ABHD6” value ([2]; 10 µM) was “reduction of the fluorescent signal” and the “labeling of ABHD6 (∼32 kDa)” value [5] was “disappeared”.

`O=C(OC(C(F)(F)F)C(F)(F)F)N1CCC(C(O)(c2ccc3c(c2)OCO3)c2ccc3c(c2)OCO3)CC1` [KML29, reference compound] was tested, and the IC50 ([1]; 30 min preincubation, dose-response curve, read-out: IC50 (MAGL, AA-HNA assay)) was 87 nM, the “effect on fluorescent signal of AA-HNA hydrolysis by MAGL” value ([1]; preincubation with 1 µM) was “significantly reduced the fluorescent signal to the background level; also recorded: reduction of the fluorescent signal” and the “Antiproliferation activity (pIC50 ± SEM) A431” value [6] was under 5. The “Antiproliferation activity (pIC50 ± SEM) H1975” value [7] was under 5, the “Antiproliferation activity (pIC50 ± SEM) B16-F10” value [8] was 5.0 ± 0.2 and the “Antiproliferation activity (pIC50 ± SEM) OVCAR-3” value [9] was under 5. The “Antiproliferation activity (pIC50 ± SEM) HT-29” value [10] was 5.0 ± 0.3, the “Antiproliferation activity (pIC50 ± SEM) HCC827” value [11] was under 5 and the “Antiproliferation activity (pIC50 ± SEM) Hela” value [12] was under 5. The “Antiproliferation activity (pIC50 ± SEM) A549” value [13] was under 5 and the “fluorescent band of MAGL (∼33 kDa) in ABPP gels” value [14] was “competed away”.
